Results on four compounds are retold here after patent US20040033972A1, “Treatment of mycobacterium tuberculosis with antisense polynucleotides” (priority 2002, published 2004).

SMILES strings stand for the structures. Values after ≈ are worked out from the molar mass of the structure shown. Like-named read-outs stand apart in the source and are kept apart here. Where a SMILES comes first, the peptide text is derived from it.

The test system of experiment [1] is M. tuberculosis Erdman. In words: microbe, parasite or virus in culture. The following applies: Mycobacterium tuberculosis.
For experiment [2], the system named is M. smegmatis 1-2c. In words: microbe, parasite or virus in culture. The settings on record: Mycolicibacterium smegmatis, 12C.
Experiment [3] has as its system M. tuberculosis Erdman. In words: Growth of M. tuberculosis Erdman broth cultures (colony forming units). The format is cell-based.
The subject of another experiment is M. tuberculosis. The settings on record: cited from earlier work.
For experiment [4], the system named is poly-L-glutamate/glutamine cell wall structure. The following applies: 20 μM; cited from earlier work.
The target of experiment [5] is extracellular glutamine synthetase (Mycobacterium tuberculosis, UniProt P9WN39). The settings on record: 20 μM; cited from earlier work.
Sequence of extracellular glutamine synthetase (P9WN39 2-478 limits assumed): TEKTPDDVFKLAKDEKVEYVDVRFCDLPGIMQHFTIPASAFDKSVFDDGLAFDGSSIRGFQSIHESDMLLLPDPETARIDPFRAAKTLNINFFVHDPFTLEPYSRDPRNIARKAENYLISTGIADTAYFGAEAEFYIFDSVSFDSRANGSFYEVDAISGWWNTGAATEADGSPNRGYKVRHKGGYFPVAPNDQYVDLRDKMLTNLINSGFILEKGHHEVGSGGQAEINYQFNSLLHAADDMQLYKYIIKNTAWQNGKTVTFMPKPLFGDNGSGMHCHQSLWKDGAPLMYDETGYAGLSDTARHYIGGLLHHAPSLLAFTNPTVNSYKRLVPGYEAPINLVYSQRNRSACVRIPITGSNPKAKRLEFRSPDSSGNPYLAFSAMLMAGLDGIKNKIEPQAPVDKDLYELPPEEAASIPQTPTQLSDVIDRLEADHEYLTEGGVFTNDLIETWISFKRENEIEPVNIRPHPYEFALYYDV
Experiment [6] relates to M. tuberculosis Erdman.
The test system of experiment [7] is M. smegmatis 1-2c.

Turning to `CC[C@@H](CO)NCCN[C@@H](CC)CO` [ethambutol], the MIC is roughly 5 µg/mL (≈ 24.5 µM) in the experiment with M. tuberculosis Erdman [1] and roughly 0.01 µg/mL (≈ 0.0489 µM) against M. smegmatis 1-2c [2].
As for `NCC[C@H](O)C(=O)N[C@@H]1C[C@H](N)[C@@H](O[C@H]2O[C@H](CN)[C@@H](O)[C@H](O)[C@H]2O)[C@H](O)[C@H]1O[C@H]1O[C@H](CO)[C@@H](O)[C@H](N)[C@H]1O` [amikacin], the “antibacterial effect of free amikacin” value is recorded as “bacteriostatic” with M. tuberculosis Erdman [3] (1 μM) and “strongly bactericidal” with M. tuberculosis Erdman [3] (5.8 μg per ml (10 μM)).
Regarding `CS(=N)(=O)CC[C@H](N)C(=O)O` (stereo partly drawn) [L-methionine-S-sulfoximine], the “inhibition of bacterial growth” value in the experiment on M. tuberculosis (2 μM) is 1.5-2 log units. In addition, the “reduction of bacterial growth” value in the experiment on M. tuberculosis (20 μM) is given as no less than 2.5 log units. The “reduction of the amount of the poly-L-glutamate/glutamine cell wall structure” value in experiment [4] is on record as 93%. Besides, the “reduction of extracellular glutamine synthetase activity” value in experiment [5] is 80%.
Take `CC(C)C[C@@H]1NC(=O)[C@@H](Cc2ccccc2)NC(=O)[C@H](CCN)NC(=O)[C@@H](NC(=O)[C@H](CCN)NC(=O)[C@@H](N)[C@@H](C)O)CCNC(=O)[C@H]([C@@H](C)O)NC(=O)[C@H](CCN)NC(=O)[C@H](CCN)NC1=O` [polymyxin B nonapeptide] (HELM PEPTIDE1{T.[Dab].[Dab].[Dab].[dF].L.[Dab].[Dab].T}$PEPTIDE1,PEPTIDE1,3:R3-9:R2$$$V2.0; N-terminus assumed): the MIC in the experiment with M. tuberculosis Erdman [6] and against M. smegmatis 1-2c [7] was roughly 5 µg/mL (≈ 5.19 µM) throughout.
